Test results published in PubChem BioAssay AID2060618 (Molecular Pharmacology Branch, DTP, NCI, 2025).

System: 454973-116-R2-J3-PDC spheroids, percent test/control viability
Assay: Anticancer human tumor 454973-116-R2-J3-PDC patient-derived pancreatic carcinoma cell line growth inhibition [CLK]
Conditions: spheroids with HUVEC and MSC; for IC50: curve of first compound; for viability, T/C: stronger effect = lower value
Text: A high-throughput screen of multi-cell type tumor spheroids was designed to identify active combinations of […] and targeted small molecules. Complex spheroids include a stromal component modeled by human endothelial cells (HUVEC) and fibroblasts modeled by human mesenchymal stem cells (MSCs). The concentration ranges selected for each drug and investigational agent were based upon clinically achievable concentrations if the clinical Cmax of the agent was known.
Compounds. The drugs and investigational agents: cirtuvivint (SM08502; NSC835563), CC-671 (NSC850746), vemurafenib (NSC761431), tapotoclax (NSC804041), sotorasib (NSC818433), adagrasib (NSC831453), MRTX-1133 (NSC836407), BAY2416964 (NSC825713), copanlisib (NSC816437), inavolisib (NSC800729), abemaciclib (NSC768073), osimertinib (NSC779217), entinostat (NSC756642), eltanexor (KPT-8602, NSC794443), venetoclax (NSC766270), ceralasertib (NSC777638), bortezomib (NSC756655), olaparib (NSC753686), talazoparib (NSC767125), alisertib (NSC759677), peposertib (NSC802822), gemcitabine (NSC613327), 5-fluorouracil (NSC19893), SN-38 (NSC673596), oxaliplatin (NSC266046), paclitaxel (NSC125973), and doxorubicin (NSC123127), were obtained from the National Cancer Institute (NCI) Developmental Therapeutics Program Chemical Repository. The FDA-approved anticancer drug set is available from the Developmental Therapeutics Program at https://dtp.cancer.gov/organization/dscb/obtaining/available plates.htm. […] The stock solutions were prepared in dimethyl sulfoxide (DMSO, Sigma-Aldrich, St. Louis, MO, cat. D2650), except for the platinum complexes which were prepared in saline (Quality Biological, Gaithersburg, MD, cat. 114-055-101), at 800-fold the tested concentration and stored at -70 degrees C prior to their use. All drugs and investigational agents were tested over a range starting from a high concentration at or near the clinical Cmax and decreasing in half-log increments. If the clinical Cmax for an agent had not been determined, the highest concentration tested was 10 microM.
Cell Culture. All cells were maintained in an incubator at 37 degrees C and 5% CO2 with 95% humidity. The PDC lines were cultured according to standard operating procedures established by the NCI PDMR. Briefly, all PDCs were thawed and cultured in Matrigel-coated flasks prepared with a working solution of 1X Ham's F-12 nutrient mix, without supplementation (Invitrogen, Waltham, MA, cat. 11765054), 100 U/mL penicillin-streptomycin (Invitrogen, cat. 15140122), and 2.5% Matrigel (Corning Inc., Corning, NY, cat. 354248) for the first three passages. The 947758-054-R-J2-PDC line was cultured in 6B/Colon 1A media, which includes advanced DMEM/F-12 (Thermo Fisher Scientific, cat. 12634028), 10 mM HEPES (Thermo Fisher Scientific, cat. 15630080), 1X GlutaMAX supplement (Thermo Fisher Scientific, cat. 35050061), 0.1 mg/mL primocin (InvivoGen, cat. ant-pm-2), 10% defined fetal bovine serum, heat inactivated (HyClone Laboratories Inc., cat. SH30070.03HI), 1.25 mM N-Acetyl-L-cysteine (Sigma-Aldrich, cat. A9165), 10 mM nicotinamide (Sigma-Aldrich, cat. N0636), 1X B-27 supplement (Thermo Fisher Scientific, cat. 17504044), 1X N-2 supplement (Thermo Fisher Scientific, cat. 17502048), and 10 microM Y-27632 dihydrochloride (Tocris Bioscience, cat. 1254). The 876862-298-R-J1-PDC was cultured in 6E media, which includes all 6B/Colon 1A media components plus 50% L-WRN conditioned media (ATCC, cat. CRL-3276), 50 ng/mL recombinant human EGF recombinant protein (hEGF; Thermo Fisher Scientific, cat. PHG0311), 10 ng/mL recombinant human fibroblast growth factor 10 (hGFG-10; PeproTech, cat. 100-26), 1 ng/mL recombinant human fibroblast growth factor 2 (hFGF-2; PeproTech, cat. 100-18B), and 1 µM prostaglandin E2 (PGE2; Tocris, cat. 2296). The 227483-062-R1-J1-PDC line was cultured in Panc media, containing all 6E components except hFGF-2, with the addition of 500 nM SB-431542 (Selleckchem, cat. S1067) and 10 nM gastrin (Tocris, cat. 3006). […]

[1] = second compound 0.0316 µM, first compound 0.0316 µM
[2] = second compound 0.0316 µM, first compound 0.1 µM
[3] = second compound 0.0316 µM, first compound 0.316 µM
[4] = second compound 0.0316 µM, first compound 1 µM
[5] = second compound 0.0316 µM, first compound 3.16 µM
[6] = second compound 0.0316 µM, first compound 10 µM
[7] = second compound 0.1 µM, first compound 0.0316 µM
[8] = second compound 0.1 µM, first compound 0.1 µM
[9] = second compound 0.1 µM, first compound 0.316 µM
[10] = second compound 0.1 µM, first compound 1 µM
[11] = second compound 0.1 µM, first compound 3.16 µM
[12] = second compound 0.1 µM, first compound 10 µM
[13] = second compound 0.316 µM, first compound 0.0316 µM
[14] = second compound 0.316 µM, first compound 0.1 µM
[15] = second compound 0.316 µM, first compound 0.316 µM
[16] = second compound 0.316 µM, first compound 1 µM
[17] = second compound 0.316 µM, first compound 3.16 µM
[18] = second compound 0.316 µM, first compound 10 µM
[19] = second compound 1 µM, first compound 0.0316 µM
[20] = second compound 1 µM, first compound 0.1 µM
[21] = second compound 1 µM, first compound 0.316 µM
[22] = second compound 1 µM, first compound 1 µM
[23] = second compound 1 µM, first compound 3.16 µM
[24] = second compound 1 µM, first compound 10 µM
[25] = second compound 3.16 µM, first compound 0.0316 µM
[26] = second compound 3.16 µM, first compound 0.1 µM
[27] = second compound 3.16 µM, first compound 0.316 µM
[28] = second compound 3.16 µM, first compound 1 µM
[29] = second compound 3.16 µM, first compound 3.16 µM
[30] = second compound 3.16 µM, first compound 10 µM
[31] = second compound 10 µM, first compound 0.0316 µM
[32] = second compound 10 µM, first compound 0.1 µM
[33] = second compound 10 µM, first compound 0.316 µM
[34] = second compound 10 µM, first compound 1 µM
[35] = second compound 10 µM, first compound 3.16 µM
[36] = second compound 10 µM, first compound 10 µM
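Also: spheroids exposed to compounds for 7 days before readout.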

Q: `C=C(F)C(=O)N1CCN(c2nc(OCC3CCCN3C)nc3c2CCN(c2cccc4cccc(Cl)c24)C3)CC1CC#N` (centres undefined) + CN1CCN(c2cc(C(=O)Nc3cc4cc(-c5cnn(C)c5)ccc4cn3)ccn2)CC1 was tested. Which IC50 (second compound 0.0316 µM) did it give?
A: 5760 nM

Q: And the IC50 (second compound 0.1 µM)?
A: 4990 nM

Q: And the IC50 (second compound 0.316 µM)?
A: < 31.6 nM

Q: And the IC50 (second compound 1 µM)?
A: < 31.6 nM

Q: What about the IC50 (second compound 3.16 µM) of the same compound?
A: < 31.6 nM

Q: And the IC50 (second compound 10 µM)?
A: < 31.6 nM

Q: What about the viability, T/C [1] of the same compound?
A: 97.8%

Q: What about the viability, T/C [2] of the same compound?
A: 109%

Q: And the viability, T/C [3]?
A: 98.9%

Q: What about the viability, T/C [4] of the same compound?
A: 101%

Q: What about the viability, T/C [5] of the same compound?
A: 101%

Q: What about the viability, T/C [6] of the same compound?
A: 3.09%

Q: And the viability, T/C [7]?
A: 75.4%

Q: What about the viability, T/C [8] of the same compound?
A: 82.9%

Q: What about the viability, T/C [9] of the same compound?
A: 80.2%

Q: And the viability, T/C [10]?
A: 81%

Q: And the viability, T/C [11]?
A: 91.9%

Q: What about the viability, T/C [12] of the same compound?
A: 0.93%

Q: What about the viability, T/C [13] of the same compound?
A: 1.92%

Q: What about the viability, T/C [14] of the same compound?
A: 2.64%

Q: What about the viability, T/C [15] of the same compound?
A: 2.38%

Q: And the viability, T/C [16]?
A: 2.24%

Q: What about the viability, T/C [17] of the same compound?
A: 1.56%

Q: What about the viability, T/C [18] of the same compound?
A: 0.09%

Q: And the viability, T/C [19]?
A: 0.15%

Q: And the viability, T/C [20]?
A: 0.21%

Q: And the viability, T/C [21]?
A: 2.03%

Q: What about the viability, T/C [22] of the same compound?
A: 0.11%

Q: What about the viability, T/C [23] of the same compound?
A: 0.1%

Q: What about the viability, T/C [24] of the same compound?
A: 1.24%

Q: What about the viability, T/C [25] of the same compound?
A: 0.17%

Q: And the viability, T/C [26]?
A: 2.27%

Q: And the viability, T/C [27]?
A: 0.55%

Q: And the viability, T/C [28]?
A: 0.15%

Q: What about the viability, T/C [29] of the same compound?
A: 0.12%

Q: And the viability, T/C [30]?
A: 1%

Q: What about the viability, T/C [31] of the same compound?
A: 1.46%

Q: What about the viability, T/C [32] of the same compound?
A: 0.37%

Q: And the viability, T/C [33]?
A: 0.27%

Q: And the viability, T/C [34]?
A: 0.68%

Q: What about the viability, T/C [35] of the same compound?
A: 0.23%

Q: And the viability, T/C [36]?
A: 0.25%

Q: What does the source list for `C=CC(=O)N1CCN(c2nc(=O)n(-c3c(C)ccnc3C(C)C)c3nc(-c4c(O)cccc4F)c(F)cc23)C(C)C1` (centres undefined) + CN1CCN(c2cc(C(=O)Nc3cc4cc(-c5cnn(C)c5)ccc4cn3)ccn2)CC1?
A: IC50 (second compound 0.0316 µM): > 10000 nM; IC50 (second compound 0.1 µM): > 10000 nM; IC50 (second compound 0.316 µM): < 31.6 nM; IC50 (second compound 1 µM): < 31.6 nM; IC50 (second compound 3.16 µM): < 31.6 nM; IC50 (second compound 10 µM): < 31.6 nM; viability, T/C [1]: 97%; viability, T/C [2]: 99.5%; viability, T/C [3]: 103%; viability, T/C [4]: 110%; viability, T/C [5]: 110%; viability, T/C [6]: 119%; viability, T/C [7]: 87.6%; viability, T/C [8]: 88.4%; viability, T/C [9]: 92.6%; viability, T/C [10]: 87.1%; viability, T/C [11]: 98.4%; viability, T/C [12]: 54.7%; viability, T/C [13]: 2.25%; viability, T/C [14]: 2.21%; viability, T/C [15]: 6.18%; viability, T/C [16]: 2.73%; viability, T/C [17]: 4.43%; viability, T/C [18]: 2.46%; viability, T/C [19]: 0.13%; viability, T/C [20]: 1.49%; viability, T/C [21]: 1.16%; viability, T/C [22]: 0.14%; viability, T/C [23]: 0.16%; viability, T/C [24]: 1.96%; viability, T/C [25]: 1.3%; viability, T/C [26]: 0.21%; viability, T/C [27]: 4.08%; viability, T/C [28]: 0.17%; viability, T/C [29]: 4.42%; viability, T/C [30]: 1.08%; viability, T/C [31]: 1.96%; viability, T/C [32]: 0.63%; viability, T/C [33]: 0.4%; viability, T/C [34]: 0.69%; viability, T/C [35]: 0.61%; viability, T/C [36]: 0.21%
